Consider 27 molecules from patent US11149018B2, “Substituted N-arylethyl-2-aminoquinoline-4-carboxamides and use thereof” (Bayer Aktiengesellschaft, priority 2017, dated 2021).

For the experiment, the target named is FP receptor (Homo sapiens (Human), UniProt P43088). Kind of experiment: In vitro test of inhibition of human FP receptor activity (PGF2α-induced calcium flux in FP-expressing CHEM1 cells). In kind it is cell-based. As to conditions: PGF2α 2 nM, some mean values of multiple determinations. The essentials: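 FP antagonism in FP-expressing CHEM1 cells loaded with Fluo-8. Compound preincubated 10 min at 37° C, then receptor stimulated with 2 nM (final) PGF2α in calcium-free Tyrode with 2 mM CaCl2.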
FP receptor, sequence (P43088 whole entry): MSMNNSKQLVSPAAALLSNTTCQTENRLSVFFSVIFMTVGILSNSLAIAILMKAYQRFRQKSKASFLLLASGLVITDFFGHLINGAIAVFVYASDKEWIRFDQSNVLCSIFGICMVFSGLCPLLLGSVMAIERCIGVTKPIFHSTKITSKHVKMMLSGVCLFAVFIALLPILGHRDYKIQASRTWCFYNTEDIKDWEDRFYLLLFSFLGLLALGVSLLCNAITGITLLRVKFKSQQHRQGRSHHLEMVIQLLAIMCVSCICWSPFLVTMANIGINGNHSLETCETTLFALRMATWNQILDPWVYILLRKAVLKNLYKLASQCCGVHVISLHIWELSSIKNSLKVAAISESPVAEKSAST
A general note: Calcium flux is commonly read through the fluorescence of an indicator in the cells.
In the case of `[2H]C1([2H])N(c2nc3ccc(Br)cc3c(C(=O)NCC(CCC(=O)O)c3ccccc3OC(F)(F)F)c2C)C([2H])([2H])C([2H])([2H])C1([2H])[2H]` (single isomer, unassigned; (+)) [Example 279, (+)-5-[({6-Bromo-3-methyl-2-[(^2H8)pyrrolidin-1-yl]quinolin-4-yl}carbonyl)amino]-4-[2-(trifluoromethyl)phenyl]pentanoic acid], the IC50 – broadly, the midpoint of a concentration-inhibition curve – was determined as 11 nM.
Take `[2H]C1([2H])N(c2nc3ccc(Br)cc3c(C(=O)NCC(CCC(=O)O)c3c(F)ccc(F)c3Cl)c2C)C([2H])([2H])C([2H])([2H])C1([2H])[2H]` (single isomer, unassigned; (+)) [Example 281, (+)-5-[({6-Bromo-3-methyl-2-[(^2H8)pyrrolidin-1-yl]quinolin-4-yl}carbonyl)amino]-4-(2-chloro-3,6-difluorophenyl)pentanoic acid]: the IC50 is 80 nM.
In the case of `COc1ccccc1C(CCC(=O)O)CNC(=O)c1c(C)c(N2CCCC(F)(F)C2)nc2ccc(Br)cc12` (single isomer, unassigned; (+)) [Example 289, (+)-5-({[6-Bromo-2-(3,3-difluoropiperidin-1-yl)-3-methylquinolin-4-yl]carbonyl}amino)-4-(2-methoxyphenyl)pentanoic acid] it was 2.4 nM; in that of `Cc1c(N2CCCCC2)nc2ccc(Br)cc2c1C(=O)NCC(CC(=O)O)c1c(F)cccc1Cl` (single isomer, unassigned; (-)) [Example 2, (−)-4-({[6-Bromo-3-methyl-2-(piperidin-1-yl)quinolin-4-yl]carbonyl}amino)-3-(2-chloro-6-fluorophenyl)butanoic acid], 23 nM.
`Cc1c(N2CCCCC2)nc2ccc(Br)cc2c1C(=O)NCC(CCC(=O)O)c1cc(F)ccc1Cl` (single isomer, unassigned; (-)) [Example 6, (−)-5-({[6-Bromo-3-methyl-2-(piperidin-1-yl)quinolin-4-yl]carbonyl}amino)-4-(2-chloro-5-fluorophenyl)pentanoic acid]: the IC50 turned out to be 7.8 nM.
For the molecule `Cc1c(N2CCSCC2)nc2ccc(Br)cc2c1C(=O)NCC(CCC(=O)O)c1ccccc1Cl` (single isomer, unassigned; (-)) [Example 27, (−)-5-({[6-Bromo-3-methyl-2-(thiomorpholin-4-yl)quinolin-4-yl]carbonyl}amino)-4-(2-chlorophenyl)pentanoic acid], the IC50 stood at 14 nM.
Under `Cc1c(N2CCCO2)nc2ccc(Br)cc2c1C(=O)NCC(CCC(=O)O)c1ccccc1Cl` (single isomer, unassigned; (-)) [Example 39, (−)-5-({[6-Bromo-3-methyl-2-(1,2-oxazolidin-2-yl)quinolin-4-yl]carbonyl}amino)-4-(2-chlorophenyl)pentanoic acid] stands 24 nM; under `Cc1c(N2CCCC(C)(C)C2)nc2ccc(Br)cc2c1C(=O)NCC(CCC(=O)O)c1ccccc1Cl` (single isomer, unassigned; (-)) [Example 43, (−)-5-({[6-Bromo-2-(3,3-dimethylpiperidin-1-yl)-3-methylquinolin-4-yl]carbonyl}amino)-4-(2-chlorophenyl)pentanoic acid], 90 nM; under `Cc1c(N2CCCC(C)C2)nc2ccc(Br)cc2c1C(=O)NCC(CCC(=O)O)c1ccccc1Cl` (single isomer, unassigned; (-)) [Example 46, (−)-5-[({6-Bromo-3-methyl-2-[3-methylpiperidin-1-yl]quinolin-4-yl}carbonyl)amino]-4-(2-chlorophenyl)pentanoic acid], 1.3 nM.
Under `Cc1c(N2CCCC(C)C2)nc2ccc(Br)cc2c1C(=O)NCC(CCC(=O)O)c1ccccc1Cl` (single isomer, unassigned; (-)) [Example 49, (−)-5-[({6-Bromo-3-methyl-2-[3-methylpiperidin-1-yl]quinolin-4-yl}carbonyl)amino]-4-(2-chlorophenyl)pentanoic acid] stands 14 nM; under `Cc1c(N2CCCC(F)(F)C2)nc2ccc(Br)cc2c1C(=O)NCC(CCC(=O)O)c1ccccc1Cl` (single isomer, unassigned; (-)) [Example 51, (−)-5-({[6-Bromo-2-(3,3-difluoropiperidin-1-yl)-3-methylquinolin-4-yl]carbonyl}amino)-4-(2-chlorophenyl)pentanoic acid], 13 nM; under `CCC1CCCN(c2nc3ccc(Br)cc3c(C(=O)NCC(CCC(=O)O)c3ccccc3Cl)c2C)C1` (single isomer, unassigned; (-)) [Example 59, (−)-5-[({6-Bromo-2-[3-ethylpiperidin-1-yl]-3-methylquinolin-4-yl}carbonyl)amino]-4-(2-chlorophenyl)pentanoic acid], 11 nM.
`CCC1CCCN(c2nc3ccc(Br)cc3c(C(=O)NCC(CCC(=O)O)c3ccccc3Cl)c2C)C1` (single isomer, unassigned; (-)) [Example 60, (−)-5-[({6-Bromo-2-[3-ethylpiperidin-1-yl]-3-methylquinolin-4-yl}carbonyl)amino]-4-(2-chlorophenyl)pentanoic acid]: the IC50 worked out at 7.5 nM.
As for `Cc1c(N2CCC[C@@H]2C)nc2ccc(Br)cc2c1C(=O)NCC(CCC(=O)O)c1ccccc1Cl` (single isomer, unassigned; (-)) [Example 80], the IC50 amounted to 98 nM.
For `Cc1c(N2CCC[C@@H]2C)nc2ccc(Br)cc2c1C(=O)NCC(CCC(=O)O)c1ccccc1Cl` (single isomer, unassigned; (-)) [Example 81], the IC50 was determined as 180 nM.
Take `Cc1c(N2CCCCC2)nc2ccc(Br)cc2c1C(=O)NCC(CCC(=O)O)c1ccccc1C(F)(F)F` (single isomer, unassigned; (-)) [Example 112, (−)-5-({[6-Bromo-3-methyl-2-(piperidin-1-yl)quinolin-4-yl]carbonyl}amino)-4-[2-(trifluoromethyl)phenyl]pentanoic acid]: the IC50 came out at 3 nM.
With `Cc1c(N2CCCC2)nc2ccc(Br)cc2c1C(=O)NCC(CCC(=O)O)c1ccccc1C(F)(F)F` (single isomer, unassigned; (-)) [Example 116, (−)-5-({[6-Bromo-3-methyl-2-(pyrrolidin-1-yl)quinolin-4-yl]carbonyl}amino)-4-[2-(trifluoromethyl)phenyl]pentanoic acid], the IC50 came to 4.6 nM.
`Cc1c(N2CCCC(F)(F)C2)nc2ccc(Br)cc2c1C(=O)NCC(CCC(=O)O)c1ccccc1C(F)(F)F` (single isomer, unassigned; (-)) [Example 118, (−)-5-({[6-Bromo-2-(3,3-difluoropiperidin-1-yl)-3-methylquinolin-4-yl]carbonyl}amino)-4-[2-(trifluoromethyl)phenyl]pentanoic acid]: the IC50 worked out at 8.5 nM.
On to `Cc1c(N2CCCCCC2)nc2ccc(Br)cc2c1C(=O)NCC(CCC(=O)O)c1ccccc1C(F)(F)F` (single isomer, unassigned; (-)) [Example 121, (−)-5-({[2-(Azepan-1-yl)-6-bromo-3-methylquinolin-4-yl]carbonyl}amino)-4-[2-(trifluoromethyl)phenyl]pentanoic acid], for which the IC50 worked out at 4.1 nM.
`Cc1c(N2CCCCC2)nc2ccc(Br)cc2c1C(=O)NCC(CCC(=O)O)c1ccccc1OC(F)(F)F` (single isomer, unassigned; (-)) [Example 127, (−)-5-({[6-Bromo-3-methyl-2-(piperidin-1-yl)quinolin-4-yl]carbonyl}amino)-4-[2-(trifluoromethoxy)phenyl]pentanoic acid]: the IC50 is 0.79 nM.
Turning to `Cc1c(N2CCCC2)nc2ccc(Br)cc2c1C(=O)NCC(CCC(=O)O)c1ccccc1OC(F)(F)F` (single isomer, unassigned; (-)) [Example 130, (−)-5-({[6-Bromo-3-methyl-2-(pyrrolidin-1-yl)quinolin-4-yl]carbonyl}amino)-4-[2-(trifluoromethoxy)phenyl]pentanoic acid], the IC50 was found to be 2.6 nM.
As to `Cc1c(N2CCCC(F)(F)C2)nc2ccc(Br)cc2c1C(=O)NCC(CCC(=O)O)c1ccccc1OC(F)(F)F` (single isomer, unassigned; (-)) [Example 133, (−)-5-({[6-Bromo-2-(3,3-difluoropiperidin-1-yl)-3-methylquinolin-4-yl]carbonyl}amino)-4-[2-(trifluoromethoxy)phenyl]pentanoic acid], the IC50 was found to be 2 nM.
Turning to `Cc1c(N2CCCCCC2)nc2ccc(Br)cc2c1C(=O)NCC(CCC(=O)O)c1ccccc1OC(F)(F)F` (single isomer, unassigned; (-)) [Example 136, (−)-5-({[2-(Azepan-1-yl)-6-bromo-3-methylquinolin-4-yl]carbonyl}amino)-4-[2-(trifluoromethoxy)phenyl]pentanoic acid], the IC50 was 1.1 nM.
Take `Cc1c(N2CCCCC2)nc2ccc(Br)cc2c1C(=O)NCC(CCC(=O)O)c1cccc(F)c1Cl` (single isomer, unassigned; (-)) [Example 142, (−)-5-({[6-Bromo-3-methyl-2-(piperidin-1-yl)quinolin-4-yl]carbonyl}amino)-4-(2-chloro-3-fluorophenyl)pentanoic acid]: the IC50 came out at 4.3 nM.
Regarding `Cc1c(N2CCCCC2)nc2ccc(Br)cc2c1C(=O)NCC(CCC(=O)O)c1c(Cl)ccc(F)c1F` (single isomer, unassigned; (-)) [Example 145, (−)-5-({[6-Bromo-3-methyl-2-(piperidin-1-yl)quinolin-4-yl]carbonyl}amino)-4-(6-chloro-2,3-difluorophenyl)pentanoic acid], the IC50 was found to be 1.5 nM.
`Cc1ccc(F)cc1C(CCC(=O)O)CNC(=O)c1c(C)c(N2CCCCC2)nc2ccc(Br)cc12` (single isomer, unassigned; (-)) [Example 148, (−)-5-({[6-Bromo-3-methyl-2-(piperidin-1-yl)quinolin-4-yl]carbonyl}amino)-4-(5-fluoro-2-methylphenyl)pentanoic acid]: the IC50 was 4.5 nM.
On to `Cc1c(N2CCCCC2)nc2ccc(Br)cc2c1C(=O)NCC(CCC(=O)O)c1c(F)cccc1C(F)(F)F` (single isomer, unassigned; (-)) [Example 161, (−)-5-({[6-Bromo-3-methyl-2-(piperidin-1-yl)quinolin-4-yl]carbonyl}amino)-4-[2-fluoro-6-(trifluoromethyl)phenyl]pentanoic acid], for which the IC50 amounted to 1.4 nM.
